Data from patent US12054509B2, “Antimicrobial compounds, compositions, and uses thereof” (Lakewood Amedex, Inc., priority 2017, dated 2024).

Columns and labels:
[1] = pH of 20 mg/mL (2%) aqueous solution; assay type: physicochemical; conditions: 20 mg/mL in DI water
Protocol: pH studies are conducted to show the pH of Nu-8 compared to Bisphosphocin® compounds Nu-2, Nu-4, and Nu-5. 20 mg/mL Nu-2 solution is prepared by diluting 2 mL of 250 mg/mL Nu-2 solution with 23 mL DI water. 20 mg/mL Nu-4 and Nu-5 solutions are prepared in the same way. 401.65 mg Nu-8 is weighed in a 5 mL volumetric flask and diluted with DI water to volume. 20 mg/mL Nu-8 solution is prepared by diluting 5 mL of 80.3 mg/mL Nu-8 solution with 15 mL DI water. The pH values of 4 Nu-2, Nu-4, Nu-5, and Nu-8 at 20 mg/mL are measured with a calibrated pH meter. Also shown in TABLE 2 is a summary of other physical properties of the compound of Formula (I) and reference compounds Nu-2, Nu-4, and Nu-5.

[2] = Pow (partition coefficient); assay type: physicochemical
[3] = test system: P. aeruginosa K2732; test: Bacterial cytological profiling (Example 6), P. aeruginosa; assay type: cell-based; conditions: for effect on cell envelope: BCP; for cell membrane permeability: buffered pH 4 or unbuffered LB;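 on effect on cell envelope: tested at 1 0.5 and 0.25 times MIC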
Protocol: (§1) This bacterial cytological profiling (BCP) study uses methods and materials described previously by Nonejuie, P., Burkart, M., Poglianoa, K., Pogiano, J. (2013). Bacterial cytological profiling rapidly identifies the cellular pathways targeted by antibacterial molecules. Proc. Natl. Acad. Sci. U.S.A. 110(40):16169-16174. doi: 10.1073/pnas.1311066110.
(§2) Wild type strains of E. coli ATCC 25922 or P. aeruginosa K2732 are grown in rich media (unbuffered 2× Lysogeny broth [LB]) at 30 C to an OD600˜0.4. These cultures are then split and each sample treated with the appropriate concentration of Nu-8 in unbuffered or buffered LB (final mixture OD600˜0.1). Cells exposed without Nu-8 are buffered to pH 4 with phosphoric acid.
(§3) The BCP is performed in LB media buffered to pH 4. The minimum inhibitory concentration (MIC) is measured for Nu-3, Nu-4, Nu-5, and Nu-8 against each bacterial strain. As one of ordinary skill in the art understands, minimum inhibitory concentrations are the lowest concentration of an antimicrobial that will inhibit the visible growth of a microorganism after overnight incubation. […] Cellular viability is assayed at three time points (5 minutes and 4 and 24 h following the onset of treatment).
(§4) For imaging E. coli, treated cells are stained with 1 μg/Ml FM4-64, 2 μg/mL DAPI, and 0.5 μM SYTOXGreen (Molecular Probes/Invitrogen). P. aeruginosa samples are stained 0.5 μM SYTOX Green, 28 μg/mL DAPI, and 4.5 μg/mL FM 4-64. Cells are transferred to an agarose pad (20% LB, 1% agarose) for imaging as described in Pogliano, J., Osborne, N., Sharp, M. D., Abanes-De Mello, A., Perez, A., Sun, Y.-L. and Pogliano, K. (1999), A vital stain for studying membrane dynamics in bacteria: a novel mechanism controlling septation during Bacillus subtilis sporulation. Molecular Microbiology, 31: 1149-1159. doi:10.1046/j.1365-2958.1999.01255.x.

[4] = test system: E. coli ATCC 25922; test: Bacterial cytological profiling (Example 6), E. coli; assay type: cell-based; conditions: for effect on cell envelope: BCP; for cell membrane permeability: buffered pH 4 or unbuffered LB; for DNA condensation: higher treatment concentrations, buffered pH 4; for cell wall deformations: unbuffered LB;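 on cell wall deformations: tested at 1 0.5 and 0.25 times MIC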;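 on effect on cell envelope: tested at 1 0.5 and 0.25 times MIC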
Protocol: as §1, §2, §3, §4

[5] = test system: Escherichia coli (strain CFT073, TPPS 1041); test: Urinary tract infection model in BALB/c mice, initial efficacy (Example 10); assay type: in vivo; conditions: 50 mg/kg transurethral at 24 hr, 60 minutes post-treatment
Text: Female BALB/c mice (20-22 g) ordered from Envigo are acclimated to housing conditions and handled in accordance with Animal Use Protocol (AUP) number TP-08. Animals are fed irradiated Teklad Global 29 18 Rodent Diet and water ad libitum. Mice are housed 6/cage in static cages with irradiated ⅛″ Teklad corn cobbedding 7902 inside bioBubble® clean rooms that provide H.E.P.A filtered air into the bubble environment at 100 complete air changes per hour. The environment is controlled to a temperature range of 74°±4° F. and a humidity range of 30-70%. All procedures carried out in this experiment are conducted in compliance with the laws, regulations, and guidelines of the National Institutes of Health and with the approval of the TransPharm Preclinical Solutions Animal Care and Use Committee.
A clinical isolate of Escherichia coli (strain CFT073, TPPS 1041) are procured from the University of Michigan.
The organism is grown overnight at 37° C. in ambient atmosphere on trypticase soy agar plates supplemented with 5% sheep blood cells. The culture is aseptically swabbed and transferred to tubes of trypticase soy broth. The optical density is determined at 600 nm. The culture is diluted to provide an inoculum of approximately 7.5 log10 CFU per mouse in a volume of 30 μL. Instillation of the bacterial challenge constituted time 0 hour for the study. Inoculum counts are estimated before inoculation by optical density and confirmed after inoculation by dilution and back counts.
One hour prior to bacterial challenge, water is removed from animal cages. […]
The primary endpoint used to assess progress of the infection is mean bacterial burden per gram of urinary bladder tissue. […] Colony forming units (CFU) are enumerated and the total bacterial burden per gram of urinary bladder tissue homogenate is calculated.
The geometric mean CFU, along with standard error of the mean (SEM), are calculated using Microsoft Excel and bar charts are prepared for the data using GraphPad Prism v. […]

Compound	pH (2% solution) [1]	Pow [2]	effect on cell envelope [3]	cell membrane permeability [3]	effect on cell envelope [4]	cell membrane permeability [4]	DNA condensation [4]	cell wall deformations [4]	average bladder CFU burden [5]
CCCCOP(=O)(O)OCCOCCOP(=O)(O)OCCCC [Nu-5]	0.93	0.0480	affect the cell envelope	increase cell membrane permeability	affect the cell envelope	increase cell membrane permeability	causes DNA condensation	cause cell wall deformations	–
COC1[C@@H](OP(=O)(O)OCCCCO)[C@@H](COP(=O)(O)OCCCCO)O[C@H]1n1ccc(=O)[nH]c1=O (stereo partly shown) [Nu-2]	0.99	0.0407	–	–	–	–	–	–	–
gentamicin [reference compound]	–	–	–	–	–	–	–	–	6.1 log10 CFU
CCCCOP(=O)(O)OC[C@H]1O[C@@H](n2cc(C)c(=O)[nH]c2=O)C[C@H]1OP(=O)(O)OCCCC [Nu-4]	0.94	0.0592	affect the cell envelope	increase cell membrane permeability	affect the cell envelope	increase cell membrane permeability	causes DNA condensation	cause cell wall deformations	–
